The record followed here is ChEMBL document CHEMBL3045533, “Synthesis and cytotoxicity of 1-phenylethanolamine carboxamide derivatives: effects on the cell cycle” (Med Chem Res, 2010).

Assay [1] has as its system L1210. In words: Cytotoxicity against Mus musculus (mouse) L1210 cells after 72 hr by MTT assay. The assay is classed as functional, cell-based. Conditions: L1210, 72 h.
In assay [2] the test system is B16. Kind of assay: Cytotoxicity against Mus musculus (mouse) B16 cells after 72 hr by MTT assay. The format is functional, cell-based. Conditions: B16, 72 h.
The test system of assay [3] is L1210. In words: Induction of apoptosis in Mus musculus (mouse) L1210 cells assessed as apoptotic cells at 500 uM after 3 hr by PI/annexin V-staining based flow cytometric analysis (reference value: 30%). The format is functional. For orientation: In flow cytometry, cells or beads pass a laser one at a time.
Assay [4] relates to L1210. Kind of assay: Induction of apoptosis in Mus musculus (mouse) L1210 cells assessed as cell death at 500 uM after 3 hr by PI/annexin V-staining based flow cytometric analysis (reference value: 5.3%). The assay is classed as functional.
The test system of assay [5] is L1210. In words: Induction of apoptosis in Mus musculus (mouse) L1210 cells assessed as viable cells at 500 uM after 3 hr by PI/annexin V-staining based flow cytometric analysis (reference value: 32%). The assay is classed as functional. As to conditions: L1210, 3 h, read-out: Activity.
The subject of assay [6] is L1210. In words: Induction of apoptosis in Mus musculus (mouse) L1210 cells at 500 uM after 3 hr by PI-staining based flow cytometric analysis. The format is functional, cell-based.
Assay [7] deals with U-937. In words: Cytotoxicity against Homo sapiens (human) U937 cells. The format is functional, cell-based.

Converted amounts (≈) assume the structure as drawn. The source made the active and inactive calls. The rule behind the calls is not given here.

For the compound `COc1ccc(/C=C/C(=O)NCC(O)c2ccccc2)cc1` (centres undefined), the IC50 in assay [1] and in assay [2] was greater than 100 µM each time.
Take `O=C(/C=C/c1ccc([N+](=O)[O-])cc1)NCC(O)c1ccccc1` (centres undefined): the IC50 in assay [1] and in assay [2] was greater than 100 µM throughout.
Turning to `COc1ccc2[nH]c(C(=O)NCC(O)c3ccc(N)cc3)cc2c1` (centres undefined), the Activity is on record as 41% in assay [3] and 7% in assay [4]. The viability at 500 µM in assay [5] was 48%. Further, the result in assay [6] was Active. In addition, the IC50 in assay [1] amounted to 50 µM; in assay [2], 87 µM.
With `COc1cccc(/C=C/C(=O)NCC(O)c2ccccc2)c1` (centres undefined), the IC50 in assay [1] was 64 µM; in assay [2], greater than 100 µM.
Compound `COc1cc(/C=C/C(=O)NC[C@@H](O)c2ccc(O)cc2)ccc1O` yielded an IC50 in assay [7] of 44 µg/mL (≈ 134 µM).
Consider `COc1ccc2[nH]c(C(=O)NCC(O)c3ccccc3)cc2c1` (centres undefined), for which the 50% inhibitory concentration (IC50) in assay [1] was found to be 25 µM; in assay [2], 84 µM.
For `Nc1ccc(C(O)CNC(=O)/C=C/c2ccc([N+](=O)[O-])cc2)cc1` (centres undefined) the same measures were 64 µM and 53 µM.
For `COc1ccc(/C=C/C(=O)NCC(O)c2ccc(N)cc2)cc1` (centres undefined), in that order: greater than 100 µM and 93 µM.

For orientation: IC50 means the midpoint of a concentration-inhibition curve. A higher IC50 goes with lower potency.
